Values joined by “and” are separate entries in the source; they are usually repeats but may differ in a detail not shown here. Identical values can stand only once. After the bases stand the sugars from the 5' end (letter, count) and the backbone: PS all phosphorothioate, else s phosphorothioate and o phosphodiester by linkage. Methylation of C is not given here. e = 2'-O-(2-methoxyethyl) (MOE); k = constrained ethyl (cEt); d = 2'-deoxy (DNA)
Target: SOD1
Conditions: ASO

**Q.** How did the target mRNA inhibition (HepG2, 5 µM) turn out when “TTAATGTTTATCAGGATACA (sugars e5 d10 e5, PS)” was run?
**A.** 34%

**Q.** How did the target mRNA inhibition (HepG2, 3 µM) turn out when “ACCTGCACTGGTACAGC (sugars e3 k2 d7 k2 e3, PS)” was run?
**A.** 12%

**Q.** “AATAGCCTCATAATAAG (sugars e2 k2 d9 k2 e2, PS)” was tested. Which target mRNA inhibition (HepG2, 5 µM) did it give?
**A.** 25%

**Q.** Which target mRNA inhibition (A431, 0.12 µM) does the source give for “TGTTTAATGTTTATCA (sugars kekeddddddddekek, linkages s1 o3 s8 o1 s2)” here?
**A.** 6%

**Q.** What about the target mRNA inhibition (A431, 0.6 µM) of the same sequence?
**A.** 14%

**Q.** What about the target mRNA inhibition (A431, 3 µM) of the same sequence?
**A.** 15%

**Q.** And the target mRNA inhibition (A431, 15 µM)?
**A.** 32%

**Q.** What about the target mRNA inhibition (HepG2, 0.222 µM) of the same sequence?
**A.** 42%

**Q.** And the target mRNA inhibition (HepG2, 0.667 µM)?
**A.** 54%

**Q.** What about the target mRNA inhibition (HepG2, 2 µM) of the same sequence?
**A.** 69%

**Q.** And the target mRNA inhibition (HepG2, 6 µM)?
**A.** 86%

**Q.** How did the target mRNA inhibition (HepG2, 5 µM) turn out when “ATCAGTTTCTCACTACAGGT (sugars e5 d10 e5, PS)” was run?
**A.** 22%

**Q.** For “CATCCTTTGGCCCACCG (sugars e3 k2 d7 k2 e3, PS)”, which target mRNA inhibition (HepG2, 3 µM) is on record?
**A.** 38%

**Q.** Which target mRNA inhibition (HepG2, 3 µM) does the source give for “TTCATTTCCACCTTTGC (sugars e3 k2 d7 k2 e3, PS)” here?
**A.** 33%

**Q.** For “CTGGTCCATTACTTTCC (sugars e3 k2 d7 k2 e3, PS)”, which target mRNA inhibition (HepG2, 3 µM) is on record?
**A.** 11%

**Q.** For “AAGAAATTCTGACAAGT (sugars e3 k2 d7 k2 e3, PS)”, which target mRNA inhibition (HepG2, 3 µM) is on record?
**A.** 18%

**Q.** With “GTTTAATACCCATCTGT (sugars e3 k2 d7 k2 e3, PS)” as the sequence, how does the target mRNA inhibition (HepG2, 3 µM) read?
**A.** 17%

**Q.** Which target mRNA inhibition (HepG2, 3 µM) does the source give for “CTGGTCCATTACTTTCCTTC (sugars e5 d10 e5, PS)” here?
**A.** 50%

**Q.** For “TACAGGTACTTTAAAGC (sugars e2 k2 d8 k2 e3, PS)”, which target mRNA inhibition (HepG2, 5 µM) is on record?
**A.** 23%

**Q.** “CCTCAGACTACATCCAA (sugars e2 k2 d9 k2 e2, PS)” was tested. Which target mRNA inhibition (HepG2, 0.1875 µM) did it give?
**A.** 11%

**Q.** And the target mRNA inhibition (HepG2, 0.75 µM)?
**A.** 67%

**Q.** What about the target mRNA inhibition (HepG2, 3 µM) of the same sequence?
**A.** 89%

**Q.** What about the target mRNA inhibition (HepG2, 4 µM) of the same sequence?
**A.** 87%

**Q.** What about the target mRNA inhibition (HepG2, 12 µM) of the same sequence?
**A.** 94%

**Q.** “CCTCATAATAAGTGCCA (sugars e2 k2 d9 k2 e2, PS)” was tested. Which target mRNA inhibition (HepG2, 5 µM) did it give?
**A.** 31%

**Q.** Which target mRNA inhibition (HepG2, 5 µM) does the source give for “ATAAGTGCCATACAGGG (sugars e2 k2 d8 k2 e3, PS)” here?
**A.** 36%

**Q.** “ACACCTTCACTGGTCCA (sugars e3 k2 d7 k2 e3, PS)” was tested. Which target mRNA inhibition (HepG2, 3 µM) did it give?
**A.** 20%

**Q.** Which target mRNA inhibition (HepG2, 4 µM) does the source give for “ATAACTCGCTAGGCCACGCC (sugars e5 d10 e5, PS)” here?
**A.** 12%

**Q.** For “CTTTCCTTCTGCTCGAA (sugars e3 k2 d7 k2 e3, PS)”, which target mRNA inhibition (HepG2, 3 µM) is on record?
**A.** 0%

**Q.** How did the target mRNA inhibition (HepG2, 3 µM) turn out when “CCTTCTGCTCGAAATTG (sugars e3 k2 d7 k2 e3, PS)” was run?
**A.** 16%

**Q.** “TTAGTTTGAATTTGGAT (sugars e2 k2 d8 k2 e3, PS)” was tested. Which target mRNA inhibition (HepG2, 5 µM) did it give?
**A.** 31%

**Q.** For “GGCGATCCCAATTACACC (sugars e5 d8 e5, linkages s1 o3 s9 o2 s2)”, which target mRNA inhibition (A431, 0.062 µM) is on record?
**A.** 3%

**Q.** And the target mRNA inhibition (A431, 0.185 µM)?
**A.** 1%

**Q.** What about the target mRNA inhibition (A431, 0.556 µM) of the same sequence?
**A.** 29%

**Q.** What about the target mRNA inhibition (A431, 1.667 µM) of the same sequence?
**A.** 0%

**Q.** And the target mRNA inhibition (A431, 5 µM)?
**A.** 27%

**Q.** And the target mRNA inhibition (A431, 15 µM)?
**A.** 0%

**Q.** And the target mRNA inhibition (SH-SY5Y, 0.062 µM)?
**A.** 0%

**Q.** And the target mRNA inhibition (SH-SY5Y, 0.185 µM)?
**A.** 3%

**Q.** And the target mRNA inhibition (SH-SY5Y, 0.556 µM)?
**A.** 21%

**Q.** And the target mRNA inhibition (SH-SY5Y, 1.667 µM)?
**A.** 31%

**Q.** What about the target mRNA inhibition (SH-SY5Y, 5 µM) of the same sequence?
**A.** 47%

**Q.** What about the target mRNA inhibition (SH-SY5Y, 15 µM) of the same sequence?
**A.** 66%

**Q.** What does the source list for “CCGTCGCCCTTCAGCACGCA (sugars e5 d8 e7, linkages s1 o3 s10 o3 s2)”?
**A.** target mRNA inhibition (A431, 0.062 µM): 8%; target mRNA inhibition (A431, 0.185 µM): 4%; target mRNA inhibition (A431, 0.556 µM): 5%; target mRNA inhibition (A431, 1.667 µM): 4%; target mRNA inhibition (A431, 5 µM): 9%; target mRNA inhibition (A431, 15 µM): 3%; target mRNA inhibition (SH-SY5Y, 0.062 µM): 11%; target mRNA inhibition (SH-SY5Y, 0.185 µM): 15%; target mRNA inhibition (SH-SY5Y, 0.556 µM): 9%; target mRNA inhibition (SH-SY5Y, 1.667 µM): 30%; target mRNA inhibition (SH-SY5Y, 5 µM): 59%; target mRNA inhibition (SH-SY5Y, 15 µM): 76%

**Q.** What does the source list for “GATACATTTCTACAGCT (sugars e2 k2 d9 k2 e2, PS)”?
**A.** target mRNA inhibition (HepG2, 0.1875 µM): 0%; target mRNA inhibition (HepG2, 0.75 µM): 45%; target mRNA inhibition (HepG2, 3 µM): 75%; target mRNA inhibition (HepG2, 4 µM): 77%; target mRNA inhibition (HepG2, 12 µM): 97%

**Q.** Which target mRNA inhibition (HepG2, 2 µM) does the source give for “CCACACCTTCACTGGTCCAT (sugars e5 d10 e5, PS)” here?
**A.** 50%

**Q.** “CCGTCGCCCTTCAGCAC (sugars e3 k2 d7 k2 e3, PS)” was tested. Which target mRNA inhibition (HepG2, 3 µM) did it give?
**A.** 27%

**Q.** How did the target mRNA inhibition (HepG2, 3 µM) turn out when “TGCCTCTCTTCATCCTTTGG (sugars e5 d10 e5, PS)” was run?
**A.** 32%

**Q.** How did the target mRNA inhibition (HepG2, 0.1875 µM) turn out when “ATACATTTCTACAGCTA (sugars e3 k2 d7 k2 e3, PS)” was run?
**A.** 34%

**Q.** And the target mRNA inhibition (HepG2, 0.75 µM)?
**A.** 56%

**Q.** And the target mRNA inhibition (HepG2, 3 µM)?
**A.** 57% and 82%

**Q.** What about the target mRNA inhibition (HepG2, 12 µM) of the same sequence?
**A.** 93%

**Q.** Which target mRNA inhibition (HepG2, 5 µM) does the source give for “GTTTCTCACTACAGGTA (sugars e2 k2 d8 k2 e3, PS)” here?
**A.** 25%

**Q.** How did the target mRNA inhibition (HepG2, 4 µM) turn out when “AGGAGACTACGACGCAAACC (sugars e5 d10 e5, PS)” was run?
**A.** 35%

**Q.** What does the source list for “CAGTGTTTAATGTTTA (sugars ekddddddddekekee, linkages s1 o1 s8 o3 s2)”?
**A.** target mRNA inhibition (A431, 0.12 µM): 8%; target mRNA inhibition (A431, 0.6 µM): 26%; target mRNA inhibition (A431, 3 µM): 57%; target mRNA inhibition (A431, 15 µM): 76%; target mRNA inhibition (HepG2, 0.222 µM): 54%; target mRNA inhibition (HepG2, 0.667 µM): 79%; target mRNA inhibition (HepG2, 2 µM): 84%; target mRNA inhibition (HepG2, 6 µM): 88%

**Q.** “AGTGATCATAAATCAGT (sugars e2 k2 d8 k2 e3, PS)” was tested. Which target mRNA inhibition (HepG2, 5 µM) did it give?
**A.** 23%

Reference: the OligoGym collection
